{"source": "paper PMC8534003", "about": "“The Chemokine-Based Peptide, CXCL9(74-103), Inhibits Angiogenesis by Blocking Heparan Sulfate Proteoglycan-Mediated Signaling of Multiple Endothelial Growth Factors” (Cancers, 2021)", "key": {"[1]": {"test_system": "diabetes-induced vascular permeability, Sprague-Dawley rats", "assay": "Retinal vascular permeability in streptozotocin-induced diabetic rats", "format": "in vivo, rat", "settings": "intravitreal, equimolar CXCL9(74-103) 30 µg or CXCL9(86-103) 18 µg, two weeks, n = 12–15", "method": "Male Sprague-Dawley rats (210–240 g) were fasted overnight and injected intraperitoneally (i.p.) with streptozotocin (55 mg/kg body weight, dissolved in citrate buffer, pH 4.5) to induce diabetes. After 3 days, the animals were anesthetized, diabetes was confirmed and the vitreous of the right eye was injected with equimolar amounts of CXCL9(74-103) (30 µg), CXCL9(86-103) (18 µg) or PBS (5 µL/injection). Diabetes-induced breakdown of the blood-retinal barrier as a consequence of increased vascular permeability was evaluated in retinas two weeks after streptozotocin injection, as previously described. Briefly, 30 min prior to sacrifice, fluorescein isothiocyanate (FITC)-conjugated dextran of 3-5 kDa (Sigma-Aldrich) was intravenously (i.v.) injected. After collection of a blood sample, rats were perfused with PBS. The retinas were excised, weighed and homogenized. The fluorescence in the retina lysates was measured using a SpectraMax® Gemini™ XPS system. For normalization of the data, the following equation was used to express the obtained results: Retinal FITC-dextran (µg)/retinal weight (g) Plasma FITC-dextran concentration (µg/µL) × circulation time (h)"}, "[2]": {"test_system": "MDA-MB-231 breast cancer xenograft", "assay": "In vivo MDA-MB-231 breast cancer mouse model", "design": "species or system human tumor cells in SCID mice", "settings": "800 µg s.c. osmotic pump; text says data not shown", "method": "Six-to-eight-week-old female SCID mice were s.c. injected with 6 × 10^6 MDA-MB-231 breast tumor cells (American Type Culture Collection, Manassas, VA) in 200 µL PBS. Three days later, mice were anesthetized as described (vide supra), a dorsal incision was made and an ALZET osmotic pump (model 1002, DURECT Corporation) containing 800 µg/100 µL CXCL9(74-103) or CXCL9(86-103) or 100 µL PBS was s.c. implanted, which delivered a continuous dose over the course of two weeks. Three weeks after tumor cell injection, mice were sacrificed. Tumors were isolated, minced and added to 2 mL of tumor cell medium [TCM; 5% (v/v) FCS in RPMI 1640 + Glutamax (Gibco)]. After centrifugation (500 g, room temperature, 5 min), minced tumors were incubated at 37 °C for 30 min in 3 mL of digestion medium [2 mg/mL collagenase D, 0.1 mg/mL DNAse and 5 U/mL dispase (Corning Life Sciences) in TCM]. Subsequently, tumor fragments were further disrupted using a 1 mL syringe and 18G needle, and 2 mL of digestion medium was added for an additional incubation at 37 °C for 15 min. […] After centrifugation (500 g, 4 °C, 5 min), the pellet was resuspended in 500 µL of 2% (v/v) FCS in PBS and the cells were counted. To assess the anti-angiogenic potential of the CXCL9-derived peptides, the population of endothelial cells within the tumor samples was determined via flow cytometry (vide supra)."}}, "note": "Entries after “also recorded” stand apart in the source; their conditions may differ."}
{"sequence": "KKVLKVRKSQRSRQKKTT [CXCL9(86-103)]", "values": [{"measurement": "retinal vascular permeability (FITC-dextran leakage)", "setting": "[1]", "value": "tended to decrease the vascular leakage, but this was not significant; also recorded: could not significantly improve diabetes-induced vascular leakage"}, {"measurement": "tumor-associated angiogenesis", "setting": "[2]", "value": "no anti-angiogenic activity"}]}
